# Key:
# [1] = molecular target: T1, Alpha-2A adrenergic receptor (Homo sapiens, UniProt P08913)
# T1 sequence (P08913 whole entry): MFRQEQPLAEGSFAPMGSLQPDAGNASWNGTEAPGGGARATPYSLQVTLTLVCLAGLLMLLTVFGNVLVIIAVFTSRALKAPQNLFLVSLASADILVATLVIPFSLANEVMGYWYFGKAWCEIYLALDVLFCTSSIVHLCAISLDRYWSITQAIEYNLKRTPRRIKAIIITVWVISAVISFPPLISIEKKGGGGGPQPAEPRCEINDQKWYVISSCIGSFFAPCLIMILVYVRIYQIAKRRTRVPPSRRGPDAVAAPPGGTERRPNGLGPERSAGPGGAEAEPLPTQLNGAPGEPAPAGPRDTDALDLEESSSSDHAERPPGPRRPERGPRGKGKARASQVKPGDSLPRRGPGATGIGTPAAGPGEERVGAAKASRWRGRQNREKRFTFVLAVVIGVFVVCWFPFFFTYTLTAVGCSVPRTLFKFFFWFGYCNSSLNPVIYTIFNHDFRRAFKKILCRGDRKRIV
# [2] = molecular target: T2, Amine oxidase [flavin-containing] A (Homo sapiens, UniProt P21397); type: functional
# T2 sequence (P21397 whole entry): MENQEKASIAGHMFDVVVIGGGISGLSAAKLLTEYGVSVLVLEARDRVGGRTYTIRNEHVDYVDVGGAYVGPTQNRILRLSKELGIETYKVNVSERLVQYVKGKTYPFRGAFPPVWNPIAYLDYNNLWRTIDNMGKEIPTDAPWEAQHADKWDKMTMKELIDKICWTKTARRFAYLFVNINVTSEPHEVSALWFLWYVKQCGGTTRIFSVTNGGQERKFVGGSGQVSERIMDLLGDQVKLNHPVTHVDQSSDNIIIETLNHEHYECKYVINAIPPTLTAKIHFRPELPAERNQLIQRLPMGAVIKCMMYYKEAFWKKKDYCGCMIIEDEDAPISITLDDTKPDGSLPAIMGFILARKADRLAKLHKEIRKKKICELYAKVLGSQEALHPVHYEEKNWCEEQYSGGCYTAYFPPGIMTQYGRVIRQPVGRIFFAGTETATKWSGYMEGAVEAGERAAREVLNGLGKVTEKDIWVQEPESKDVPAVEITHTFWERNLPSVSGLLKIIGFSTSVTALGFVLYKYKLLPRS
# [3] = molecular target: Vascular endothelial growth factor receptor 2 (Homo sapiens, UniProt P35968); type: functional
# Estrogen receptor = molecular target: T3, Estrogen receptor (Homo sapiens, UniProt P03372)
# T3 sequence (P03372 whole entry): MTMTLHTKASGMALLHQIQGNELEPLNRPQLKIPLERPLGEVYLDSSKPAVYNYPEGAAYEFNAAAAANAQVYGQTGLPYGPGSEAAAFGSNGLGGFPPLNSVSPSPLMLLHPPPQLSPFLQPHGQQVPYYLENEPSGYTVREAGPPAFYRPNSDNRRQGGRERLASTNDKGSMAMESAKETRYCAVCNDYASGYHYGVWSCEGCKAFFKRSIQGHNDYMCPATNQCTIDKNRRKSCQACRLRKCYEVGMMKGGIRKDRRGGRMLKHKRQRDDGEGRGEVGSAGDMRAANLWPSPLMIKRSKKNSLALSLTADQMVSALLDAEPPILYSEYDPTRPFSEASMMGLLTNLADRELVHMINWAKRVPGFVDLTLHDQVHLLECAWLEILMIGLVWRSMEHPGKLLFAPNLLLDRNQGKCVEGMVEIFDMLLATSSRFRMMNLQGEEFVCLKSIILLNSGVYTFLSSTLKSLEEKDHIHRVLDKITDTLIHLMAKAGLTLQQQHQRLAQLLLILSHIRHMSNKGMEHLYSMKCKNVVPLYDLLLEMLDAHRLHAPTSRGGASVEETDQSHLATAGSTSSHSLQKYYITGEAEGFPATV
# D(1A) dopamine receptor = D(1A) dopamine receptor (Homo sapiens, UniProt P21728)
# [4] = molecular target: 5-hydroxytryptamine receptor 2B (Homo sapiens, UniProt P41595); type: functional, cell-based
# [5] = molecular target: Sodium-dependent noradrenaline transporter (Homo sapiens, UniProt P23975)
# Thromboxane A2 receptor [6] = molecular target: T4, Thromboxane A2 receptor (Homo sapiens, UniProt P21731); type: functional, cell-based
# T4 sequence (P21731 whole entry): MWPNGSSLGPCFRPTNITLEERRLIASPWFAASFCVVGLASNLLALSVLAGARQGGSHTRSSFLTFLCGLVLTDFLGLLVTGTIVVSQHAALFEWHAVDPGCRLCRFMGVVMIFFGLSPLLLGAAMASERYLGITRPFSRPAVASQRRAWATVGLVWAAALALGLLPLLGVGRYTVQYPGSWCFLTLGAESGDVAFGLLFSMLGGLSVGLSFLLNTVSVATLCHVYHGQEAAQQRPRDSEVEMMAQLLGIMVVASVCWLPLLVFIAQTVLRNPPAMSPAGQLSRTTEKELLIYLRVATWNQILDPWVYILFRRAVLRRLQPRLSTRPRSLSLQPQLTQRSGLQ
# [7] = molecular target: T5, Alpha-1A adrenergic receptor (Homo sapiens, UniProt P35348); type: functional, cell-based
# T5 sequence (P35348 whole entry): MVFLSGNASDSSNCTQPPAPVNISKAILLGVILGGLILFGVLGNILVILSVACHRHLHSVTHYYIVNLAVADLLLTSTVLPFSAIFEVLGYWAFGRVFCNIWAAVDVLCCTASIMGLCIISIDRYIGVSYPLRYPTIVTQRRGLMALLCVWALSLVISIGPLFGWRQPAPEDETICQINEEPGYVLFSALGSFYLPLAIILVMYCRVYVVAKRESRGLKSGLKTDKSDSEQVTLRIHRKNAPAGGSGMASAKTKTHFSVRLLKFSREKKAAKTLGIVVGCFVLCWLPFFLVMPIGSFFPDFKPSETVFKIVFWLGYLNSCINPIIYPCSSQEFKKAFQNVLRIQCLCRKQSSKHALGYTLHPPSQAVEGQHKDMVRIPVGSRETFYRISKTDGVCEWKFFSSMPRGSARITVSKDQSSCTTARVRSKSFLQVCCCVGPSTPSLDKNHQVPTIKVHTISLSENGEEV
# [8] = molecular target: 3',5'-cyclic-AMP phosphodiesterase 4A (Homo sapiens, UniProt P27815); type: functional
# Thromboxane A2 receptor [9] = molecular target: T4, Thromboxane A2 receptor; type: functional, cell-based; remark: listed apart in the source
# D(3) dopamine receptor = D(3) dopamine receptor (Homo sapiens, UniProt P35462)
# Also: assay procedure not described here.
# Chain of 3',5'-cyclic-AMP phosphodiesterase 4A (P27815 whole entry): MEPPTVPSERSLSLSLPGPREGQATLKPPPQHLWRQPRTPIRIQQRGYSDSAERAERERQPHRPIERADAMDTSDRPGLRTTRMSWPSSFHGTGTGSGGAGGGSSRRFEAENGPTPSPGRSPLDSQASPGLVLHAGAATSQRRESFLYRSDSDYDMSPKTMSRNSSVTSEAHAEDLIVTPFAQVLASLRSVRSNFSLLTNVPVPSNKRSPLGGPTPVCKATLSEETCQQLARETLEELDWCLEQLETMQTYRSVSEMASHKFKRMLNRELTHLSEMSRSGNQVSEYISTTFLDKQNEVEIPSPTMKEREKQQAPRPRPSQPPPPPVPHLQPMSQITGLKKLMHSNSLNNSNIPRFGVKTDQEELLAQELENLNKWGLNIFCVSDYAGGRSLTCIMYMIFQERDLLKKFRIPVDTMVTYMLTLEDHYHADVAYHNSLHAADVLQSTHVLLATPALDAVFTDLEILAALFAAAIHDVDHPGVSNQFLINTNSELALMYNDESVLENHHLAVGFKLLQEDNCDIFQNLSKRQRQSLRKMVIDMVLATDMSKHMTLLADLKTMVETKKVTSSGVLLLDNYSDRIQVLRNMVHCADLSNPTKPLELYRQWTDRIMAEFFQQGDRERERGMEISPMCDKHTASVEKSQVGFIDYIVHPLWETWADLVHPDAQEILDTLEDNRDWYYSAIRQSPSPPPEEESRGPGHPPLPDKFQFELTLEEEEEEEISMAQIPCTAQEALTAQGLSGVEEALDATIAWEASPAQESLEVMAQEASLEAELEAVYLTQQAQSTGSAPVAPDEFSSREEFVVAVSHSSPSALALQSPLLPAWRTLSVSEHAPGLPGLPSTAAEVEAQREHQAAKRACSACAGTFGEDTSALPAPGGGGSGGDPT
# Chain of 5-hydroxytryptamine receptor 2B (P41595 whole entry): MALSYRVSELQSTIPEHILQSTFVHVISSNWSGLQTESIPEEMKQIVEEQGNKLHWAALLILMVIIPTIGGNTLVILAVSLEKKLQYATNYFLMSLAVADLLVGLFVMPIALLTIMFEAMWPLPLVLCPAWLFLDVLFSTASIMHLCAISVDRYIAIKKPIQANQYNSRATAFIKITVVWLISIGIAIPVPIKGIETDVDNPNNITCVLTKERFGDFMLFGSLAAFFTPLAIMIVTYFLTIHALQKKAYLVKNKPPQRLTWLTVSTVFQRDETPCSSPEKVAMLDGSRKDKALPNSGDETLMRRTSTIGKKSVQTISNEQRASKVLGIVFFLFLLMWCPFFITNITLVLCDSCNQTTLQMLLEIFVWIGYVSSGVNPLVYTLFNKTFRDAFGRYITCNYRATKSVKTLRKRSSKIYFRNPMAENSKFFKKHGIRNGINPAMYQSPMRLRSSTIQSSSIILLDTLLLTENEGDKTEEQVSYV
# Chain of Vascular endothelial growth factor receptor 2 (P35968 whole entry): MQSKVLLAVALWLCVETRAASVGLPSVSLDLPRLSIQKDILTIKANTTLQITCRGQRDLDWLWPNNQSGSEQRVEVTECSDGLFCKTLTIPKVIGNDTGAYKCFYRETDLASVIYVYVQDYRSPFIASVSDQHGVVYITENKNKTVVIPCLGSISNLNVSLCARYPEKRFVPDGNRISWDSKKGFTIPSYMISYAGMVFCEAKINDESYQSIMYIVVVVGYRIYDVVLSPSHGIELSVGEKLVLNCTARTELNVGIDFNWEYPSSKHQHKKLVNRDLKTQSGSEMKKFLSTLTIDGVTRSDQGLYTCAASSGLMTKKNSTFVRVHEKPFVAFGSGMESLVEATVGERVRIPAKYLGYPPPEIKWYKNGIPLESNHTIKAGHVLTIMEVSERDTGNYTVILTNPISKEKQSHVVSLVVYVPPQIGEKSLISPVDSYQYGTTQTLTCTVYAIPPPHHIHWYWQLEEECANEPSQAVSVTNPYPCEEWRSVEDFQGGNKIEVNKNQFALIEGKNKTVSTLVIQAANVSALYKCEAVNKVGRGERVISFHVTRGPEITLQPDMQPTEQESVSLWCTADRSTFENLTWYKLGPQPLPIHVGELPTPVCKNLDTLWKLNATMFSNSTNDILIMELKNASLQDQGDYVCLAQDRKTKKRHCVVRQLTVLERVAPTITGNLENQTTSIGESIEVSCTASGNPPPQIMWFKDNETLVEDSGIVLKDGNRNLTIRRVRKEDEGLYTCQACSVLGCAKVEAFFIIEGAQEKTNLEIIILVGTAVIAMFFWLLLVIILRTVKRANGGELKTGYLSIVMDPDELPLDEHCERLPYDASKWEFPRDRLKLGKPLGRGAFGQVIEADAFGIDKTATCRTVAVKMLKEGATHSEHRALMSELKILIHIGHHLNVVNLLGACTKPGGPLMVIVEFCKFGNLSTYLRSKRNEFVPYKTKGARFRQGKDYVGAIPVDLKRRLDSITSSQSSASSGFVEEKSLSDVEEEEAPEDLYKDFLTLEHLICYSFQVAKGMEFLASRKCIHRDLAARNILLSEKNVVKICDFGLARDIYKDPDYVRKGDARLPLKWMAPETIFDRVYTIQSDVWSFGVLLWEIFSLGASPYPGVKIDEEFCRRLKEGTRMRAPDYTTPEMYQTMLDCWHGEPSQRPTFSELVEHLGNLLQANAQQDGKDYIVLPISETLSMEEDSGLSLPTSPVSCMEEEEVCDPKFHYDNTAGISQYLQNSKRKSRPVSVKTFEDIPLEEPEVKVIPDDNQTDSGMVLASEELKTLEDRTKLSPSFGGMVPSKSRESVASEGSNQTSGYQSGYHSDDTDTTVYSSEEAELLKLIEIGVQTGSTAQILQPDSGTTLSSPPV
# Chain of Sodium-dependent noradrenaline transporter (P23975 whole entry): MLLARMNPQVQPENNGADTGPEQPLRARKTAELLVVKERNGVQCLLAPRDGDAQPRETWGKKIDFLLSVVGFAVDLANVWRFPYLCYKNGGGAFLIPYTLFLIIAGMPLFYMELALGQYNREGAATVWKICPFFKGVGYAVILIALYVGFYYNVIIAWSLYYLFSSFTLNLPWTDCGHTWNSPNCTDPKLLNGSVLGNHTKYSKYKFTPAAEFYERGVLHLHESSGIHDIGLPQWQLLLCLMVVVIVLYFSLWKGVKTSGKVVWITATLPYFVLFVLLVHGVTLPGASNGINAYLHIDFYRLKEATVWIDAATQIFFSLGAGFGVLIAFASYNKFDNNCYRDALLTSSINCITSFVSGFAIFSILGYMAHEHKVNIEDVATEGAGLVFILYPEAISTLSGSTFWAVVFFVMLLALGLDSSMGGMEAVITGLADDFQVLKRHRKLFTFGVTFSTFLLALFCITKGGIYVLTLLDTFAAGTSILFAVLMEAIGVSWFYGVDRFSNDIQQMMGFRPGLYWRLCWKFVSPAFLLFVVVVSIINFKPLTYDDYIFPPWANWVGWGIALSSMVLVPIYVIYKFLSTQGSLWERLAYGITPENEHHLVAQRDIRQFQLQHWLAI
# Chain of D(1A) dopamine receptor (P21728 whole entry): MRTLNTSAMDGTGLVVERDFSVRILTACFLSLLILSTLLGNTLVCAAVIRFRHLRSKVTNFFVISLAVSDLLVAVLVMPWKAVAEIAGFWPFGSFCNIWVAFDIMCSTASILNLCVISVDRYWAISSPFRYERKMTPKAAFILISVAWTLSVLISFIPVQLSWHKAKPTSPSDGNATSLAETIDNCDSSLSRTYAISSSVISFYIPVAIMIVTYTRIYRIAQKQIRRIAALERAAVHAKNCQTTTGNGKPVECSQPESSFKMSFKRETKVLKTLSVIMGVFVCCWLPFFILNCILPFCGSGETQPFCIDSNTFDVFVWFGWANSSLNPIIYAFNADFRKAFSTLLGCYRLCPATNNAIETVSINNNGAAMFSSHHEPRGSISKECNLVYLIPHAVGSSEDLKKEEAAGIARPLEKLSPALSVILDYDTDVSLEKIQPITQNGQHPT
# Chain of D(3) dopamine receptor (P35462 whole entry): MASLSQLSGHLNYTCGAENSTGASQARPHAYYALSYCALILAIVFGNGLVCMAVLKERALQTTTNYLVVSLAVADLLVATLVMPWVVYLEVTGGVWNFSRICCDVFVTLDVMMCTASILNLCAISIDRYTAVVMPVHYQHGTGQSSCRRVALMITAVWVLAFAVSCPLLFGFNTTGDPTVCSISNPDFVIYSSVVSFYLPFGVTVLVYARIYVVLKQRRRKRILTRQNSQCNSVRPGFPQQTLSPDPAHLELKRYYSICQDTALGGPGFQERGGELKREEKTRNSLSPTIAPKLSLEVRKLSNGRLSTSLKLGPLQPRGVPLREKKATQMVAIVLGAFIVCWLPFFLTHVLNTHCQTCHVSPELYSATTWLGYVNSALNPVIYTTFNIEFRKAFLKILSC
Compound,AC50 [1] [µM],AC50 [2] [µM],AC50 [3] [µM],AC50 (Estrogen receptor) [µM],AC50 (D(1A) dopamine receptor) [µM],AC50 [4] [µM],AC50 [5] [µM],AC50 (Thromboxane A2 receptor [6]) [µM],AC50 [7] [µM],AC50 [8] [µM],AC50 (Thromboxane A2 receptor [9]) [µM],AC50 (D(3) dopamine receptor) [µM]
Nc1ccc(C(=O)NCC(=O)O)cc1 [AMINOHIPPURIC ACID],> 30,> 30,> 30,> 30,> 30,> 30,> 30,> 30,> 30,> 30,> 30,> 30
CC(NCCC(c1ccccc1)c1ccccc1)c1ccccc1 (configuration not stated) [FENDILINE],5.89,> 30,> 30,> 30,21.7,> 30,3.26,–,–,> 30,20.7,9.87
CN1C(C(=O)Nc2ccccn2)=C(OC(=O)/C=C/c2ccccc2)c2ccccc2S1(=O)=O [PIROXICAM CINNAMATE],> 30,> 10,> 30,> 30,> 30,> 30,> 30,> 30,> 30,> 30,> 30,> 30
CC(O)(CC(=O)O)CC(=O)O [MEGLUTOL],> 30,> 30,> 30,> 30,> 30,> 30,> 30,13.8,18,> 30,> 30,> 30
NC(=O)N/N=C/c1ccc([N+](=O)[O-])o1 [NITROFURAZONE],> 30,> 30,> 30,> 30,> 30,> 30,> 30,> 30,> 30,> 30,> 30,> 30
CN1CCc2c(c3ccccc3n2Cc2ccccc2)C1 [MEBHYDROLIN],0.533,> 30,> 30,> 30,1.98,> 30,8.13,> 30,1.07,> 30,> 30,1.19
Cc1cn(-c2cc(NC(=O)c3ccc(C)c(Nc4nccc(-c5cnccn5)n4)c3)cc(C(F)(F)F)c2)cn1 [RADOTINIB],> 30,> 30,1.54,> 30,> 30,> 30,> 30,> 30,> 30,> 30,> 30,> 30
CC(CN(C)C)CN1c2ccccc2CCc2ccccc21 (configuration not stated) [TRIMIPRAMINE],1.27,> 30,> 30,> 30,–,> 30,18.5,–,–,> 30,9.64,0.0178
COc1cc(C[C@@H]2NCCc3cc(O)c(O)cc32)cc(OC)c1OC [TRETOQUINOL],0.829,> 30,> 30,> 30,4.72,> 30,> 30,–,> 30,> 30,–,1.81
CC(C)Cc1ccc(C(C)C(=O)OCc2ccccn2)cc1 (configuration not stated) [IBUPROFEN PICONOL],> 30,> 30,> 30,> 30,> 30,> 30,22.1,> 30,> 30,> 30,> 30,–
CC(C)N1CCN(c2ccc(OCC3COC(Cn4cncn4)(c4ccc(Cl)cc4Cl)O3)cc2)CC1 (configuration not stated) [TERCONAZOLE],2,> 30,> 30,> 30,25.2,> 30,> 30,–,16,> 30,20,7.12
N[C@@H](Cc1ccc(N(CCCl)CCCl)cc1)C(=O)O,11.2,> 30,> 30,–,> 30,> 30,> 30,> 30,> 30,> 30,> 30,24.8
NS(=O)(=O)c1cc2c(cc1Cl)NC(C(Cl)Cl)NS2(=O)=O (configuration not stated) [TRICHLORMETHIAZIDE],> 30,> 30,> 30,–,> 30,> 30,> 30,> 30,> 30,> 30,> 30,> 30
CC(=O)OCC(=O)[C@@]1(OC(C)=O)[C@@H](C)C[C@H]2[C@@H]3C[C@H](F)C4=CC(=O)C=C[C@]4(C)[C@@]3(F)[C@@H](O)C[C@@]21C [DIFLORASONE DIACETATE],> 30,> 30,> 30,–,> 30,> 30,> 30,> 30,> 30,> 30,> 30,> 30
CN1CCCC(CC2c3ccccc3Sc3ccccc32)C1 (configuration not stated) [METHIXENE],4.82,> 30,> 30,> 30,2.03,> 30,3.29,–,0.586,> 30,25,0.742
